{"source": "patent US5103007A", "about": "“Lipids” (Takeda Chemical Industries, Ltd., priority 1988, dated 1992)", "key": {"[1]": {"tested_on": "murine colon cancer (colon 26)", "experiment": "Action against murine colon cancer (colon 26) in Balb/C mice", "format": "in vivo", "conditions": "0.3 mg/mouse i.p., eight times; tumor weight after 14 days, against untreated control", "procedure": "Action of the compound in Example against murine colon cancer (colon 26)\nBalb/C mice (a group consisting of five mice) were inoculated subcutaneously at dorsolateral area with 2×10^5 murine colon cancer (colon 26l) cells, and then given intraperitoneally 0.3 mg/mouse of the compound dissolved in physiological saline, eight times, i.e. 1 day, 2 days, 5 days, 6 days, 8 days, 9 days, 12 days and 13 days after the inoculation. After 14 days, the tumor tissue was extirpated and the tumor weight was weighed. Shown in Table 2 is tumor growth inhibition ratio against the untreated control."}, "[2]": {"tested_on": "human colon adenocarcinoma (colon 205 cells)", "experiment": "Inhibition of multiplication of human colon adenocarcinoma (colon 205 cells), MTT assay", "format": "cell-based", "conditions": "72 hours", "procedure": "(§1) The effect (IC50) of the compounds obtained by Examples in inhibiting multiplication of human nasopharynx cancer (KB cells) and human colon adenocarcinoma (colon 205 cells) Each well of a 96-well microtiter plate was inoculated with 0.1 ml of human nasopharynx cancer (KB cells) (1×10^4 /ml) or human colon adenocarcinoma (colon 205 cells) (2×10^4 /ml), which was then subjected to cultivation by allowing to stand at 37° C. for 24 hours in 5% CO2. To the culture was added a 10% MEM solution (manufactured by Nissui Seiyaku or RPMI-1640), and cultivation was continued at 37° C. for 72 hours in 5% CO2. Then, the culture solution was removed with a micro-pipette. […] Incubation was conducted at 37° C for 4 hours, to which was then added 0.1 ml of a 10% SDS (Wako Pure Chemical Industries, Ltd.), and the incubation was continued at 37° C. for 24 hours."}, "[3]": {"tested_on": "human nasopharynx cancer (KB cells)", "experiment": "Inhibition of multiplication of human nasopharynx cancer (KB cells), MTT assay", "format": "cell-based", "conditions": "72 hours", "procedure": "as §1"}, "[4]": {"tested_on": "breast cancer cells MM46", "experiment": "Action against breast cancer cells MM46 in C3H mice", "format": "in vivo, murine (C3H mice)", "procedure": "Action of the compounds obtained in Examples against breast cancer cells MM46\nC3H mice (a group consisting of 5 mice) were inoculated intraperitoneally with 1×10^4 MM46 cells per mouse, and given 0.20 mg/mouse of compounds of Examples dissolved in physiological saline once a day for 4 consecutive days starting from the second day after the inoculation. Shown in Table 3 are the life-span prolongation ratio against the control group without treatment and the number of surviving mice on the 60th day after starting the test."}, "[5]": {"experiment": "Acute toxicity in CDF-1 female mice", "format": "in vivo", "conditions": "mouse, in vivo", "procedure": "Acute toxicity of Compounds of Examples\nCDF-1 female mice (5-week old: a group of consisting of 5 mice) were given once intraperitoneally 0.2 ml of a physiological saline solution of a compound of Example."}, "[6]": {"tested_on": "Sarcoma 180 cells", "experiment": "Antitumor effect against Sarcoma 180 cells in ICR mice", "format": "in vivo, murine (ICR mice)", "procedure": "Antitumor effect of compounds of Examples against Sarcoma 180 cells\nICR mice (a group consisting of 5 mice) were inoculated intraperitoneally with 1×10^5 Sarcoma 180 cells per mouse. Then, 0.33 mg/mouse of a compound dissolved in physiological saline was intraperitoneally administered three times, i.e. 1 hour, 1 day and 2 days after the inoculation. Shown in Table 4 are the life-span prolongation ratio against the control group without treatment and the number of surviving mice on the 60th day after the initiation of the test."}}, "data": [{"compound": "CCCCCCCCCCCCCCCCCCOCC(C[S+]([O-])CCOCC[n+]1ccsc1)Oc1ncccn1", "note": "(centres unmarked) [Ex. 1, 2-[2-[3-octadecyloxy-2-(pyrimidin-2-yloxy)propylsulfinyl]ethoxy]ethylthiazolium chloride]", "values": [{"measurement": "Growth inhibition ratio (1-T/C %)", "setting": "[1]", "result": 48, "unit": "%"}, {"measurement": "IC50", "setting": "[2]", "result": 1.25, "unit": "mg/L"}, {"measurement": "IC50", "setting": "[3]", "result": 1.25, "unit": "mg/L"}, {"measurement": "Life-span prolongation ratio (T/C %)", "setting": "[4]; 0.20 mg/mouse once a day for 4 consecutive days, only related to mice which died", "result": 147, "unit": "%"}, {"measurement": "No. of survivors/No. of mice tested", "setting": "[4]; 0.20 mg/mouse once a day for 4 days, on the 60th day", "result": "4/5"}, {"measurement": "No. of dead mice/No. of mice tested", "setting": "[5]", "result": "0/5"}, {"measurement": "Life-span prolongation ratio (T/C %)", "setting": "[6]; 0.33 mg/mouse i.p. 1 hour, 1 day and 2 days after inoculation, only related to mice which died", "result": 235, "unit": "%"}, {"measurement": "Number of survivors/number of mice tested", "setting": "[6]; 0.33 mg/mouse i.p. three times, on the 60th day", "result": "2/5"}]}]}
